Data reported in US11547681B2, “N-acylethanolamide derivatives and uses thereof” (ELIEM THERAPEUTICS, INC., priority 2016, dated 2023).

Assay: in vitro
Settings: for Concentration of analyte I-9 / Concentration of analyte PEA / Measured concentration of analyte PEA, 0 min / Measured concentration of analyte PEA, 10 min / Measured concentration of analyte PEA, 20 min / Measured concentration of analyte PEA, 30 min / Measured concentration of analyte PEA, 60 min / % Remaining of Initial (n = 1) / % Remaining of Initial, 0 min / % Remaining of Initial, 10 min / % Remaining of Initial, 20 min / % Remaining of Initial, 30 min / % Remaining of Initial, 60 min / Concentration, analyte PEA: 1 μM; for % Remaining of Initial (n = 1) / % Remaining of Initial, 0 min / % Remaining of Initial, 10 min / % Remaining of Initial, 20 min / % Remaining of Initial, 30 min / % Remaining of Initial, 60 min / microsomal CLint at 1 μM / half-life at 1 μM: microsomes
Method: The reaction mixture, minus cofactors, was prepared as described below. The test article was added into the reaction mixture at a final concentration of 1 μM. […] An aliquot of the reaction mixture (without cofactor) was equilibrated in a shaking water bath at 37° C. for 3 minutes. The reaction was initiated by the addition of cofactor, and the mixture was incubated in a shaking water bath at 37° C. Aliquots (100 μL) were withdrawn at 0, 10, 20, 30, and 60 minutes. All samples were immediately combined with 400 μL of ice-cold 50/50 acetonitrile/H2O containing 0.1% formic acid and internal standard to terminate the reaction. The samples were then mixed and centrifuged to precipitate proteins. Calibration standards were prepared in matched matrix. All samples and standards were assayed by LC-MS/MS using electrospray ionization for both the dosed prodrug I-9 and the expected drug (PEA). Analytical conditions are outlined in Appendix 4-1. The test article concentration at each time point was compared to the test article concentration at time 0 to determine the percent remaining at each time point. Half-lives were calculated using GraphPad software, fitting to a single-phase exponential decay equation.
Reaction mixture, minus cofactors, was prepared as described below. Test article was added into the reaction mixture at a final concentration of 1 μM. […] An aliquot of the reaction mixture (without cofactor) was equilibrated in a shaking water bath at 37° C. for 3 minutes. The reaction was initiated by the addition of cofactor, and the mixture was incubated in a shaking water bath at 37° C. Aliquots (100 μL) were withdrawn at 0, 10, 20, 30, and 60 minutes. Test article samples were immediately combined with 300 μL of ice-cold acetonitrile containing 1% formic acid. Control samples were immediately combined with 400 μL of ice-cold 50/50 acetonitrile (ACN)/dH2O containing 0.1% formic acid and internal standard to terminate the reaction. Samples were then mixed and centrifuged to precipitate proteins. Calibration standards were prepared in matched matrix. Samples and standards were assayed by LC-MS/MS using electrospray ionization for both dosed prodrug and expected drug (PEA). Analytical conditions are outlined in Appendix 8-1. Test article concentration at each time point was compared to test article concentration at time 0 to determine the percent remaining at each time point. Half-lives were calculated using GraphPad software, fitting to a single-phase exponential decay equation.
Reaction mixture, minus cofactors, was prepared as described below. Test article was added into the reaction mixture at a final concentration of 1 μM. […] An aliquot of the reaction mixture (without cofactor) was equilibrated in a shaking water bath at 37° C. for 5 minutes. Reaction was initiated by the addition of cofactor, and the mixture was incubated in a shaking water bath at 37° C. Aliquots (100 μL) were withdrawn at 0, 10, 20, 30, and 60 minutes. Test article samples were immediately combined with 300 μL of ice-cold acetonitrile containing 1% formic acid. Control samples were immediately combined with 400 μL of ice-cold 50/50 acetonitrile (ACN)/dH2O containing 0.1% formic acid and internal standard to terminate the reaction. Samples were then mixed and centrifuged to precipitate proteins. Calibration standards were prepared in matched matrix. Samples and standards were assayed by LC-MS/MS using electrospray ionization for both the dosed prodrug and the expected drug (PEA). Analytical conditions are outlined in Appendix 10-1. Test article concentration at each time point was compared to the test article concentration at time 0 to determine the percent remaining at each time point. Half-lives were calculated using GraphPad software, fitting to a single-phase exponential decay equation.
Reaction mixture, minus cofactors, was prepared as described below. Test article was added into the reaction mixture at a final concentration of 1 μM.

[1] = male, Sprague-Dawley, rat, 0 min
[2] = male, Sprague-Dawley, rat, 10 min
[3] = male, Sprague-Dawley, rat, 20 min
[4] = male, Sprague-Dawley, rat, 30 min
[5] = male, Sprague-Dawley, rat, 60 min
[6] = male, Sprague-Dawley, rat, 0.5 h
[7] = male, Sprague-Dawley, rat, Half-life

CCCCCCCCCCCCCCCC(=O)NCCOC(=O)CCC(=O)OCC(O)CO (stereo not shown) [Compound I-9]
Concentration of analyte I-9 (both, human, 0 min): 180 nM
Concentration of analyte PEA (both, human, 0 min): 830 nM
Measured concentration of analyte PEA, 0 min (both, human, 0 min): 0.47 µM
Concentration of analyte I-9 (both, human, 10 min): 2.1 nM
Concentration of analyte PEA (both, human, 10 min): 600 nM
Measured concentration of analyte PEA, 10 min (both, human, 10 min): 0.39 µM
Concentration of analyte I-9 (both, human, 20 min): 0 nM
Concentration of analyte PEA (both, human, 20 min): 510 nM
Measured concentration of analyte PEA, 20 min (both, human, 20 min): 0.22 µM
Concentration of analyte I-9 (both, human, 30 min): 0 nM
Concentration of analyte PEA (both, human, 30 min): 410 nM
Measured concentration of analyte PEA, 30 min (both, human, 30 min): 0.16 µM
Concentration of analyte I-9 (both, human, 60 min): 0 nM
Concentration of analyte PEA (both, human, 60 min): 200 nM
Measured concentration of analyte PEA, 60 min (both, human, 60 min): 0.058 µM
% Remaining of Initial (n = 1) (both, human, 0 h): 100%
% Remaining of Initial, 0 min (both, human, 0 h): 100%
% Remaining of Initial (n = 1) (both, human, 10 min): 1.2%
% Remaining of Initial, 10 min (both, human, 10 min): <1.0%
% Remaining of Initial (n = 1) (both, human, 20 min): <1.0%
% Remaining of Initial, 20 min (both, human, 20 min): <1.0%
% Remaining of Initial (n = 1) (both, human, 0.5 h): <1.0%
% Remaining of Initial, 30 min (both, human, 0.5 h): <1.0%
% Remaining of Initial (n = 1) (both, human, 1 h): <1.0%
% Remaining of Initial, 60 min (both, human, 1 h): <1.0%
microsomal CLint at 1 μM (both, human, calculated value in parentheses): 888 µL/min/mg
half-life at 1 μM (both, human, Half-Life): < 10 min
half-life at 1 μM (both, human, Half-life): < 1 min
half-life at 1 μM (both, human, Half-life, calculated value in parentheses): 1.6 min
Concentration of analyte I-9 [1]: 210 nM
Concentration of analyte PEA [1]: 350 nM
Measured concentration of analyte PEA, 0 min [1]: 0.22 µM
Concentration of analyte I-9 [2]: 8.5 nM
Concentration of analyte PEA [2]: 160 nM
Measured concentration of analyte PEA, 10 min [2]: 0.066 µM
Concentration of analyte I-9 [3]: 0 nM
Concentration of analyte PEA [3]: 76 nM
Measured concentration of analyte PEA, 20 min [3]: 0.017 µM
Concentration of analyte I-9 [4]: 0 nM
Concentration of analyte PEA [4]: 27 nM
Measured concentration of analyte PEA, 30 min [4]: 0 µM
Concentration of analyte I-9 [5]: 0 nM
Concentration of analyte PEA [5]: 3 nM
Measured concentration of analyte PEA, 60 min [5]: 0 µM
% Remaining of Initial (n = 1) (male, Sprague-Dawley, rat, 0 h): 100%
% Remaining of Initial, 0 min (male, Sprague-Dawley, rat, 0 h): 100%
% Remaining of Initial (n = 1) [2]: 4.0%
% Remaining of Initial, 10 min [2]: 1.9%
% Remaining of Initial (n = 1) [3]: <1.0%
% Remaining of Initial, 20 min [3]: <1.0%
% Remaining of Initial (n = 1) [6]: <1.0%
% Remaining of Initial, 30 min [6]: <1.0%
% Remaining of Initial (n = 1) (male, Sprague-Dawley, rat, 1 h): <1.0%
% Remaining of Initial, 60 min (male, Sprague-Dawley, rat, 1 h): <1.0%
microsomal CLint at 1 μM (male, Sprague-Dawley, rat, calculated value in parentheses): 642 µL/min/mg
half-life at 1 μM (male, Sprague-Dawley, rat, Half-Life): < 10 min
half-life at 1 μM [7]: 1.8 min
half-life at 1 μM (male, Sprague-Dawley, rat, Half-life, calculated value in parentheses): 2.2 min

CCCCCCCCCCCCCCCC(=O)NCCOC(=O)CCC(=O)OCC(COC(=O)CCC)OC(=O)CCC (stereo not shown) [Compound I-11]
Measured concentration of analyte PEA, 0 min (both, human, 0 min): 0.046 µM
Measured concentration of analyte PEA, 10 min (both, human, 10 min): 0.29 µM
Measured concentration of analyte PEA, 20 min (both, human, 20 min): 0.20 µM
Measured concentration of analyte PEA, 30 min (both, human, 30 min): 0.16 µM
Measured concentration of analyte PEA, 60 min (both, human, 60 min): 0.057 µM
% Remaining of Initial, 0 min (both, human, 0 h): 100%
% Remaining of Initial, 10 min (both, human, 10 min): 3.1%
% Remaining of Initial, 20 min (both, human, 20 min): <1.0%
% Remaining of Initial, 30 min (both, human, 0.5 h): <1.0%
% Remaining of Initial, 60 min (both, human, 1 h): <1.0%
microsomal CLint at 1 μM (both, human): 696 µL/min/mg
half-life at 1 μM (both, human, Half-life): 2 min
Measured concentration of analyte PEA, 0 min [1]: 0.023 µM
Measured concentration of analyte PEA, 10 min [2]: 0.048 µM
Measured concentration of analyte PEA, 20 min [3]: 0.031 µM
Measured concentration of analyte PEA, 30 min [4]: 0.0086 µM
Measured concentration of analyte PEA, 60 min [5]: 0 µM
% Remaining of Initial, 0 min (male, Sprague-Dawley, rat, 0 h): 100%
% Remaining of Initial, 10 min [2]: 3.3%
% Remaining of Initial, 20 min [3]: <1.0%
% Remaining of Initial, 30 min [6]: <1.0%
% Remaining of Initial, 60 min (male, Sprague-Dawley, rat, 1 h): <1.0%
microsomal CLint at 1 μM (male, Sprague-Dawley, rat): 681 µL/min/mg
half-life at 1 μM [7]: 2 min

CCCCC/C=C\C/C=C\CCCCCCCC(=O)OCC(COC(=O)CCC(=O)OCCNC(=O)CCCCCCCCCCCCCCC)OC(=O)CCCCCCC/C=C\C/C=C\CCCCC (stereo not shown) [Compound I-13]
Concentration, analyte PEA (both, human, 0 min): 0 nM
Concentration, analyte PEA (both, human, 10 min): 0 nM
Concentration, analyte PEA (both, human, 20 min): 0 nM
Concentration, analyte PEA (both, human, 30 min): 0 nM
Concentration, analyte PEA (both, human, 60 min): 0 nM
% Remaining of Initial (n = 1) (both, human, 0 h): 100%
% Remaining of Initial (n = 1) (both, human, 10 min): 79%
% Remaining of Initial (n = 1) (both, human, 20 min): 73%
% Remaining of Initial (n = 1) (both, human, 0.5 h): 60%
% Remaining of Initial (n = 1) (both, human, 1 h): 42%
microsomal CLint at 1 μM (both, human): 29.6 µL/min/mg
half-life at 1 μM (both, human, Half-life): 47 min
Concentration, analyte PEA [1]: 0 nM
Concentration, analyte PEA [2]: 0 nM
Concentration, analyte PEA [3]: 13 nM
Concentration, analyte PEA [4]: 13 nM
Concentration, analyte PEA [5]: 0 nM
% Remaining of Initial (n = 1) (male, Sprague-Dawley, rat, 0 h): 100%
% Remaining of Initial (n = 1) [2]: 91%
% Remaining of Initial (n = 1) [3]: 72%
% Remaining of Initial (n = 1) [6]: 60%
% Remaining of Initial (n = 1) (male, Sprague-Dawley, rat, 1 h): 38%
microsomal CLint at 1 μM (male, Sprague-Dawley, rat): 33.6 µL/min/mg
half-life at 1 μM [7]: 41 min
